Reference: EP4782453A1 (Beyang Therapeutics Co., Ltd., priority 2023, dated 2025)
Like-named read-outs stand apart in the source and are kept apart here.

Legend:
Menin-MLL = target: T1, Menin-MLL (Homo sapiens, UniProt O00255); test: Inhibitory activity against Menin-MLL binding (fluorescence polarization); details: 150 nM His-Menin, 15 nM FITC-MLL, 25°C for 60 min
T1 construct: His-Menin (M1-L615 end); purchased BIORTUS BP9210
T1 sequence (O00255 1-615 isoform O00255-1): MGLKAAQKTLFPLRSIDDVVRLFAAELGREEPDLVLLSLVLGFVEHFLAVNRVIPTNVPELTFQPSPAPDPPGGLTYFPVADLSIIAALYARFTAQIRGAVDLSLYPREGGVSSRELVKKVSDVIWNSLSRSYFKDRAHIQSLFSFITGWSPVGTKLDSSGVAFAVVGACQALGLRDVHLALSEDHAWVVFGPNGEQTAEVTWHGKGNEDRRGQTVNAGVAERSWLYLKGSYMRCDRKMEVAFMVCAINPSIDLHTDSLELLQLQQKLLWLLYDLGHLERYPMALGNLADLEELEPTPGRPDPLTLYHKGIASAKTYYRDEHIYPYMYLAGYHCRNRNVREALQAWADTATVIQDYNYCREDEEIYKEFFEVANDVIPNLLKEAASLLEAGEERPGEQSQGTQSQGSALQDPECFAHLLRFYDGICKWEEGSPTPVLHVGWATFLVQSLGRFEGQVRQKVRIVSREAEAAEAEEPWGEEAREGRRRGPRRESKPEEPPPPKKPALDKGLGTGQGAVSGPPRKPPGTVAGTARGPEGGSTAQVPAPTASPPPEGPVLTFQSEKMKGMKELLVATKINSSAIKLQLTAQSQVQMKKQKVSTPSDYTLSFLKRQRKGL
Summary of the method: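 Fluorescence polarization competition: compound and 150 nM His-tagged menin (residues M1-L615) sit 15 min at 25 °C in pH 7.5 HEPES buffer with NaCl, DTT and BSA; 15 nM FITC-labelled MLL peptide then binds for 60 min. IC50 fitted sigmoidally from mP values, duplicate wells.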

[1] = test system: MOLM-13 (carrying MLL-AF9); test: Inhibition of proliferation of human tumor cells (Alamar Blue, 7 days), MOLM-13; assay type: cell-based; details: Homo sapiens, MOLM-13 cells (carrying MLL-AF9), method calls the value GI50
Source text: Experimental Example 2: Evaluation of Inhibitory Activity of Compounds Against Proliferation of Human Tumor Cells
• Human acute lymphoblastic leukemia cells MV-4-11, purchased from American Type Culture Collection, Catalog Number: CRL-9591; • Human acute myeloid leukemia cells MOLM-13, purchased from COBIOER BIOSCIENCES CO., LTD, Catalog Number: CBP60678; • Human acute myeloid leukemia cells KG-1a, purchased from American Type Culture Collection, Catalog Number: CCL-246.1; • Inverted Microscope, purchased from Olympus Tokyo; • Countess™ Automated Cell Counter, purchased from Invitrogen, Model: C10281; and • Multilabel Reader, purchased from Bio-Tek, Model: Synergy HT.
MV-4-11 cells were cultured in an IMDM medium containing 10% fetal bovine serum, KG-a cells were cultured in an IMDM medium containing 20% fetal bovine serum, or MOLM-13 cells were cultured in an RPMI-1640 medium containing 20% fetal bovine serum, each supplemented with 100 U·mL^-1 penicillin and 100 µg·mL^-1 streptomycin. These cells were cultured at 37°C with 5% CO2. The suspensions of individual cell lines were prepared in their respective media and seeded into 96-well plates at a density of 4,000 cells/well for MV-4-11 and MOLM-13 cells, or 3,000 cells/well for KG-1a cells. On the day of the experiment, a compound stock solution was diluted in a 3-fold or 4-fold gradient using DMSO. Each gradient-diluted stock solution was then further diluted 250-fold with a complete medium to prepare a series of working solutions at different concentrations. Subsequently, 100 µL of working solution (containing a 2-fold concentration series of the test compound) was added to each well, with duplicate wells set up for each concentration.
Seven days after compound addition (on Day 7), an Alamar Blue assay reagent (MCE, HY-111391 / CS-0040317) was added to measure the fluorescence intensity in each well. Wells containing the cells in the growth medium supplemented with 0.1% DMSO (Day 7) served as high-read control wells. The readouts from the wells containing the cells in the growth medium supplemented with 0.1% DMSO on the day of compound addition (Day 0) served as low-reading control well. GraphPad Prism software was used to calculate the concentration required to inhibit 50% of cell proliferation (GI50), which serves as a cell proliferation inhibition activity index.

[2] = fluorescence polarization, read-out: Menin-MLL IC50
[3] = Menin-MLL IC50, fluorescence polarization

| Structure (SMILES) | IC50 (Menin-MLL; [2]) [nM] | IC50 ([1]; 168 h) [nM] | IC50 ([1]; MOLM-13, 168 h) [nM] | IC50 (Menin-MLL; [3]) [nM] |
| --- | --- | --- | --- | --- |
| CCN(C(=O)c1cc(F)ccc1-c1cc(OC2CN(C(CCCN3CCN(CCO)CC3)C(C)C)C2)n2c(C)cncc12)C(C)C (centres unmarked) [Example 488, N-ethyl-5-fluoro-2-{6-[(1-{6-[4-(2-hydroxyethyl)piperazin-1-yl]-2-methylhexan-3-yl}azacyclobutan-3-yl)oxy]-4-methylpyrrolo[1,2-a]pyrazin-8-yl}-N-(isopropyl)benzamide] | 3.4 | 19 | – | – |
| CCN(C(=O)c1cc(F)ccc1-c1cc(C2CN(C(CC[C@@H]3COCCN3)C(C)C)C2)cc2c1cnn2C)C(C)C (stereo partly drawn) [Example 458, N-ethyl-5-fluoro-2-[1-methyl-6-(1-{4-methyl-1-[(3R)-morpholin-3-yl]pentan-3-yl}azacyclobutan-3-yl}-1H-indazol-4-yl)-N-(isopropyl)benzamide] | 6.4 | 31 | – | – |
| Cc1nc(F)c2c(-c3ccc(F)cc3C(=O)N3CCOC[C@H]3C)cc(C3CN([C@H](CCCN4CC5(COC5)C4)C(C)C)C3)cn12 [Example 369] | 3.8 | 3 | – | – |
| CCN(C(=O)c1cc(F)ccc1-c1cc(C2CN([C@H](CCCN3CCN(CCO)CC3)C(C)C)C2)cc2c1cnn2C)C(C)C [Example 400-2] | 3.7 | 12 | – | – |
| Cc1ncc2c(-c3ccc(F)cc3C(=O)N(C)C(C)C)cc(C3CN([C@H](CCCN4CCN(CCO)CC4)C(C)C)C3)cn12 [Example 448-2] | 2.2 | – | 13 | – |
| CCN(C(=O)c1cc(F)ccc1-c1cc(C2CN(C(CCCN3CCNC(CC#N)C3)C(C)C)C2)cn2c(C)ncc12)C(C)C (centres unmarked) [Example 498] | – | – | 23 | 2.8 |
| CCN(C(=O)c1cc(F)ccc1-c1cc(C2CN([C@H](CCCN3CCO[C@H](CO)C3)C(C)C)C2)cn2c(C)ncc12)C(C)C [Example 450] | 5.2 | 21 | – | – |
| CCN(C(=O)c1cc(F)ccc1-c1cc(C2CN([C@H](CCCN3CCOC[C@H]3CO)C(C)C)C2)cn2c(C)ncc12)C(C)C [Example 453] | 5.3 | 22 | – | – |
| CCN(C(=O)c1cc(F)ccc1-c1cc(C2CN([C@H](CCCN3CCN[C@H](COC)C3)C(C)C)C2)cn2c(C)ncc12)C(C)C [Example 503] | 1 | 8.5 | – | – |
| Cc1ncc2c(-c3ccc(F)cc3C(=O)N3CCOC[C@H]3C)cc(C3CN([C@H](CCCN4CCN(CC(F)(F)F)CC4)C(C)C)C3)cn12 [Example 385] | 4.7 | 8.1 | – | – |
| CCN(C(=O)c1cc(F)ccc1-c1cc(C2CN([C@H](CCCN3C4COCC3C4)C(C)C)C2)cc2c1cnn2C)C(C)C [Example 426] | 3.2 | 30 | – | – |
| Cc1ncc2c(-c3ccc(F)cc3C(=O)N3CCOC[C@H]3C)cc(C3CN([C@H](CCCN4CCN(CC(F)F)CC4)C(C)C)C3)cn12 [Example 364] | 5.1 | 3.9 | – | – |
| CCN(C(=O)c1cc(F)ccc1-c1cc(C2CN([C@H](CCCN3CCN(CCOC)CC3)C(C)C)C2)cn2c(C)ncc12)C(C)C [Example 497] | 0.9 | 41 | – | – |
| CCN(C(=O)c1cc(F)ccc1-c1cc(C2CN([C@H](CCCN3CCC(OCCO)CC3)C(C)C)C2)cc2c1cnn2C)C(C)C [Example 401-2] | 3.7 | 29 | – | – |
| CCN(C(=O)c1cc(F)ccc1-c1cc(C2CN([C@H](CCCN3CCC(S(C)(=O)=O)CC3)C(C)C)C2)cc2c1cnn2C)C(C)C [Example 406] | 7 | 37 | – | – |
| CCN(C(=O)c1cc(F)ccc1-c1cc(C2CN([C@H](CCCN3CCN(C)[C@@H](CO)C3)C(C)C)C2)cn2c(C)ncc12)C(C)C [Example 506] | 0.9 | 13 | – | – |
| CCN(C(=O)c1cc(F)ccc1-c1cc(C2CN([C@H](CCCN3CCC(OC)CC3)C(C)C)C2)cc2c1cnn2C)C(C)C [Example 399-2, N-ethyl-5-fluoro-2-(6-{1-[(3R)-6-(4-methoxypiperidin-1-yl)-2-methylhexan-3-yl]azacyclobutan-3-yl}-1-methyl-1H-indazol-4-yl)-N-(isopropyl)benzamide] | 3.3 | 25 | – | – |
| CCN(C(=O)c1cc(F)ccc1-c1cc(C2CN([C@H](CN3CCN(C[C@@H](O)CO)CC3)C(C)C)C2)cn2c(C)ncc12)C(C)C [Example 429] | 2.6 | 25 | – | – |
| CCN(C(=O)c1cc(F)ccc1-c1cc(C2CN([C@H](CCCN3CCC(C#N)(CO)CC3)C(C)C)C2)cn2c(C)ncc12)C(C)C [Example 481] | – | – | 5.5 | 1.9 |
| CCN(C(=O)c1cc(F)ccc1-c1cc(C2CN([C@H](CCCN3CCC(NS(=O)(=O)CC)CC3)C(C)C)C2)cn2c(C)ncc12)C(C)C [Example 408, 2-(6-{1-[(3R)-6-(4-ethanesulfonamidopiperidin-1-yl)-2-methylhexan-3-yl]azacyclobutan-3-yl}-3-methylimidazo[1,5-a]pyridin-8-yl)-N-ethyl-5-fluoro-N-(isopropyl)benzamide] | 1.7 | 4.2 | – | – |
| Cc1ncc2c(-c3ccc(F)cc3C(=O)N3CCOC[C@H]3C)cc(C3CN([C@H](CCCN4CCN(CCF)CC4)C(C)C)C3)cn12 [Example 363] | 6.2 | 20 | – | – |
| CCN(C(=O)c1cc(F)ccc1-c1cc(C2CN([C@H](CCCN3CCN(C[C@@H](O)CO)CC3)C(C)C)C2)cc2c1cnn2C)C(C)C [Example 413] | 6.9 | 45 | – | – |
| CCN(C(=O)c1cc(F)ccc1-c1cc(C2CN([C@H](CN3CCN(C[C@H](O)CO)CC3)C(C)C)C2)cn2c(C)ncc12)C(C)C [Example 428] | 3.7 | 52 | – | – |
| CCN(C(=O)c1cc(F)ccc1-c1cc(C2CN([C@H](CCCN(C)CCOC)C(C)C)C2)cn2c(C)ncc12)C(C)C [Example 510] | 0.9 | 9.9 | – | – |
| COC[C@@H]1CN(CCC[C@H](C(C)C)N2CC(c3cc(-c4ccc(F)cc4C(=O)N(C(C)C)C(C)C)c4cnc(C)n4c3)C2)CCN1 [Example 505-2] | 1 | 9.9 | – | – |
| CCN(C(=O)c1cc(F)ccc1-c1cc(C2CN([C@H](CN3CCN(C(CO)CO)CC3)C(C)C)C2)cn2c(C)ncc12)C(C)C [Example 435] | 4.9 | 26 | – | – |
| COCCN(C(=O)c1cc(F)ccc1-c1cc(C2CN([C@H](CCCN3C[C@H]4C[C@@H]3CO4)C(C)C)C2)cn2c(C)ncc12)C(C)C [Example 467-1, 5-fluoro-N-(2-methoxyethyl)-2-(3-methyl-6-{1-[(3R)-2-methyl-6-[(1R,4R)-2-oxa-5-azadicyclo[2.2.1]heptan-5-yl]hexan-3-yl]azacyclobutan-3-yl}imidazo[1,5-a]pyridin-8-yl)-N-(isopropyl)benzamide] | – | – | 23 | 1.5 |
| CCN(C(=O)c1cc(F)ccc1-c1cc(C2CN([C@H](CCCN3CCN(C[C@H](O)CO)CC3)C(C)C)C2)cc2c1cnn2C)C(C)C [Example 412] | 6.8 | 39 | – | – |
